What was measured:
Format in all cases: in vivo
Setaria faberi (SETFA) [1] = test: B1 pre-emergence herbicidal activity; set-up: key to Pre-emergence herbicidal activity, SETFA: 5=total damage to plant; 0=no damage to plant; conditions: rate 1000 g/ha, evaluated after 13 days, score 0-5 (5=total damage, 0=no damage); for Pre-emergence herbicidal activity, SETFA: Test 1b
Description: (§1) Seeds of a variety of test species were sown in standard soil in pots: Triticum aestivium (TRZAW), Avena fatua (AVEFA), Alopecurus myosuroides (ALOMY), Echinochloa crus-galli (ECHCG), Lolium perenne (LOLPE), Zea mays (ZEAMX), Abutilon theophrasti (ABUTH), Amaranthus retroflexus (AMARE) and Setaria faberi (SETFA). After cultivation for one day (pre-emergence) under controlled conditions in a glasshouse (at 24/16° C., day/night; 14 hours light; 65% humidity), the plants were sprayed with an aqueous spray solution derived from the formulation of the technical active ingredient in acetone/water (50:50) solution containing 0.5% Tween 20 (polyoxyethelyene sorbitan monolaurate, CAS RN 9005-64-5). The test plants were then grown in a glasshouse under controlled conditions (at 24/16° C., day/night; 14 hours light; 65% humidity) and watered twice daily. After 13 days, the test was evaluated (5=total damage to plant; 0=no damage to plant).

[2] = system: Echinochloa crus-galli (ECHCG); test: B2 post-emergence herbicidal activity; set-up: key: 5=total damage to plant; 0=no damage to plant; conditions: rate 1000 g/ha, evaluated after 13 days, score 0-5 (5=total damage, 0=no damage)
Description: (§2) Seeds of a variety of test species were sown in standard soil in pots: Triticum aestivium (TRZAW), Avena fatua (AVEFA), Alopecurus myosuroides (ALOMY), Echinochloa crus-galli (ECHCG), Lolium perenne (LOLPE), Zea mays (ZEAMX), Abutilon theophrasti (ABUTH), Amaranthus retroflexus (AMARE) and Setaria faberi (SETFA). After 8 days cultivation (post-emergence) under controlled conditions in a glasshouse (at 24/16° C., day/night; 14 hours light; 65% humidity), the plants were sprayed with an aqueous spray solution derived from the formulation of the technical active ingredient in acetone/water (50:50) solution containing 0.5% Tween 20 (polyoxyethelyene sorbitan monolaurate, CAS RN 9005-64-5). The test plants were then grown in a glasshouse under controlled conditions (at 24/16° C., day/night; 14 hours light; 65% humidity) and watered twice daily. After 13 days, the test was evaluated (5=total damage to plant; 0=no damage to plant).

Avena fatua (AVEFA) [3] = test: B2 post-emergence herbicidal activity; set-up: key: 5=total damage to plant; 0=no damage to plant; conditions: Test 2b, rate 1000 g/ha, evaluated after 13 days, score 0-5 (5=total damage, 0=no damage)
Description: as §2

[4] = system: Triticum aestivium (TRZAW); test: B2 post-emergence herbicidal activity; set-up: key: 5=total damage to plant; 0=no damage to plant; conditions: Test 2b, rate 1000 g/ha, evaluated after 13 days, score 0-5 (5=total damage, 0=no damage)
Description: as §2

[5] = system: Alopecurus myosuroides (ALOMY); test: B2 post-emergence herbicidal activity; set-up: key: 5=total damage to plant; 0=no damage to plant; conditions: Test 2b, rate 1000 g/ha, evaluated after 13 days, score 0-5 (5=total damage, 0=no damage)
Description: as §2

Setaria faberi (SETFA) [6] = test: B2 post-emergence herbicidal activity; set-up: key: 5=total damage to plant; 0=no damage to plant; conditions: rate 1000 g/ha, evaluated after 13 days, score 0-5 (5=total damage, 0=no damage)
Description: as §2

Lolium perenne (LOLPE) [7] = test: B2 post-emergence herbicidal activity; set-up: key: 5=total damage to plant; 0=no damage to plant; conditions: rate 1000 g/ha, evaluated after 13 days, score 0-5 (5=total damage, 0=no damage)
Description: as §2

Avena fatua (AVEFA) [8] = test: B1 pre-emergence herbicidal activity; set-up: key: 5=total damage to plant; 0=no damage to plant; conditions: Test 1b, rate 1000 g/ha, evaluated after 13 days, score 0-5 (5=total damage, 0=no damage)
Description: as §1

[9] = system: Triticum aestivium (TRZAW); test: B1 pre-emergence herbicidal activity; set-up: key: 5=total damage to plant; 0=no damage to plant; conditions: Test 1b, rate 1000 g/ha, evaluated after 13 days, score 0-5 (5=total damage, 0=no damage)
Description: as §1

[10] = system: Alopecurus myosuroides (ALOMY); test: B1 pre-emergence herbicidal activity; set-up: key: 5=total damage to plant; 0=no damage to plant; conditions: Test 1b, rate 1000 g/ha, evaluated after 13 days, score 0-5 (5=total damage, 0=no damage)
Description: as §1

Lolium perenne (LOLPE) [11] = test: B1 pre-emergence herbicidal activity; set-up: key: 5=total damage to plant; 0=no damage to plant; conditions: rate 1000 g/ha, evaluated after 13 days, score 0-5 (5=total damage, 0=no damage); for Pre-emergence herbicidal activity, LOLPE: Test 1b
Description: as §1

[12] = system: Echinochloa crus-galli (ECHCG); test: B1 pre-emergence herbicidal activity; conditions: rate 1000 g/ha, evaluated after 13 days, score 0-5 (5=total damage, 0=no damage); for Pre-emergence herbicidal activity, ECHCG: Test 1b
Description: as §1

Zea mays (ZEAMX) [13] = test: B2 post-emergence herbicidal activity; set-up: key: 5=total damage to plant; 0=no damage to plant; conditions: Test 2a, rate 1000 g/ha, evaluated after 13 days, score 0-5 (5=total damage, 0=no damage)
Description: as §2

[14] = system: Amaranthus retroflexus (AMARE); test: B2 post-emergence herbicidal activity; set-up: key: 5=total damage to plant; 0=no damage to plant; conditions: Test 2a, rate 1000 g/ha, evaluated after 13 days, score 0-5 (5=total damage, 0=no damage)
Description: as §2

[15] = system: Abutilon theophrasti (ABUTH); test: B1 pre-emergence herbicidal activity; set-up: key: 5=total damage to plant; 0=no damage to plant; conditions: Test 1a, rate 1000 g/ha, evaluated after 13 days, score 0-5 (5=total damage, 0=no damage)
Description: as §1

Zea mays (ZEAMX) [16] = test: B1 pre-emergence herbicidal activity; set-up: key: 5=total damage to plant; 0=no damage to plant; conditions: Test 1a, rate 1000 g/ha, evaluated after 13 days, score 0-5 (5=total damage, 0=no damage)
Description: as §1

[17] = system: Amaranthus retroflexus (AMARE); test: B1 pre-emergence herbicidal activity; set-up: key: 5=total damage to plant; 0=no damage to plant; conditions: Test 1a, rate 1000 g/ha, evaluated after 13 days, score 0-5 (5=total damage, 0=no damage)
Description: as §1

[18] = system: Abutilon theophrasti (ABUTH); test: B2 post-emergence herbicidal activity; conditions: Test 2a, rate 1000 g/ha, evaluated after 13 days, score 0-5 (5=total damage, 0=no damage)
Description: as §2

Row | Structure (SMILES) | Pre-emergence herbicidal activity, SETFA (Setaria faberi (SETFA) [1]) | Control of weed species after post-emergence application, ECHCG ([2]; Test 2b) | Control of weed species after post-emergence application, AVEFA (Avena fatua (AVEFA) [3]) | Control of weed species after post-emergence application, TRAZW [4] | Control of weed species after post-emergence application, ALOMY [5] | Control of weed species after post-emergence application, SETFA (Setaria faberi (SETFA) [6]; Test 2b) | Control of weed species after post-emergence application, LOLPE (Lolium perenne (LOLPE) [7]; Test 2b) | Pre-emergence herbicidal activity, AVEFA (Avena fatua (AVEFA) [8]) | Pre-emergence herbicidal activity, TRAZW [9] | Pre-emergence herbicidal activity, ALOMY [10] | Pre-emergence herbicidal activity, LOLPE (Lolium perenne (LOLPE) [11]) | Pre-emergence herbicidal activity, ECHCG [12] | further results
1 | Cc1nc(-c2cncnc2)ncc1N(C)C(=O)OC(C)(C)C [Compound E3] | 4 | 4 | 4 | 1 | 2 | 5 | 3 | 4 | 0 | 1 | 1 | 4 | –
2 | CN1CCN(c2cnc(-c3cncc(F)c3)nc2C(F)(F)F)C1=O [Compound E9, 1-[2-(5-fluoro-3-pyridyl)-4-(trifluoromethyl)pyrimidin-5-yl]-3-methyl-imidazolidin-2-one] | 2 | 4 | 2 | 1 | 0 | 3 | 1 | 1 | 0 | 0 | 1 | 1 | –
3 | CCC(C)OC(=O)Nc1cnc(-c2cncc(F)c2)nc1C(F)(F)F (stereo not drawn) [Compound E18] | 5 | 4 | 1 | 0 | 0 | 5 | 1 | 1 | 1 | 0 | 0 | 2 | –
4 | Cc1nc(-c2cncc(F)c2)ncc1NC(=O)OC(C)(C)C [Compound E1, tert-butyl N-[2-(5-fluoro-3-pyridyl)-4-methyl-pyrimidin-5-yl]carbamate] | – | – | – | – | – | – | – | – | – | – | – | – | Control of weed species after pre-emergence application, SETFA (Setaria faberi (SETFA) [1]; Test 1a): 4; Control of weed species after post-emergence application, ECHCG ([2]; Test 2a): 4; Control of weed species after post-emergence application, ZEAMX (Zea mays (ZEAMX) [13]): 5; Control of weed species after post-emergence application, SETFA (Setaria faberi (SETFA) [6]; Test 2a): 5; Control of weed species after post-emergence application, AMARE [14]: 2; Control of weed species after post-emergence application, LOLPE (Lolium perenne (LOLPE) [7]; Test 2a): 2; Control of weed species after pre-emergence application, ABUTH [15]: 0; Control of weed species after pre-emergence application, ZEAMX (Zea mays (ZEAMX) [16]): 5; Control of weed species after pre-emergence application, AMARE [17]: 0; Control of weed species after pre-emergence application, LOLPE (Lolium perenne (LOLPE) [11]; Test 1a): 1; Control of weed species after post-emergence application, ABUTH [18]: 1; Control of weed species after pre-emergence application, ECHCG ([12]; Test 1a): 4
